Reference: patent publication US6949577B2, “Pharmaceuticals” (Pfizer, Inc., priority 2000, dated 2005)
pKi: −log10 of the molar value. Read-outs that look alike come from different tables or passages of the source.

How the values were obtained:
[1] = target: T1, TAFIa (activated human TAFI) (Homo sapiens, UniProt Q96IY4); assay: Assay for TAFIa inhibition (Ki determination); assay type: biochemical
T1 sequence (Q96IY4 115-423): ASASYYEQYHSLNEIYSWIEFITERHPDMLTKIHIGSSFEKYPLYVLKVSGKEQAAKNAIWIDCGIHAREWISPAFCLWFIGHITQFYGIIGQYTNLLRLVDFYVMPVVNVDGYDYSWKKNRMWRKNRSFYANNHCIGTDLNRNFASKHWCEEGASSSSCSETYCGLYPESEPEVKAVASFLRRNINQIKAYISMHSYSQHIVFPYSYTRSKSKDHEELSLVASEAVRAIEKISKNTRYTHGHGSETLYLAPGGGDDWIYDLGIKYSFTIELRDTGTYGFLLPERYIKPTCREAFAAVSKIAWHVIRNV
Description: To determine the degree of TAFIa inhibition, compounds were incubated with activated TAFI, and the amount of inhibition expressed in terms of Ki.
Human TAFI (recombinant or purified) was activated by incubating 20 μl of stock solution (360 μg/ml) with 10 μl of human thrombin (10 NIH units/ml), 10 μl of rabbit thrombomodulin (30 μg/ml), 6 μl calcium chloride (50 mM) in 50 μL of 20 mM HEPES (N-[2-hydroxyethyl]piperazine-N-[2-ethanesulfonic acid]) buffer containing 150 mM sodium chloride and 0.01% TWEEN 80 (polyoxyethylene-sorbitan monooleate) pH 7.6 for 20 minutes at 22° C. At the end of the incubation period, thrombin was neutralized by the addition of 10 μL of PPACK (D-Phe-Pro-Arg chloromethyl ketone)(100 nM). TAFIa solution was stored on ice for 5 minutes and finally diluted with 175 μl of HEPES buffer.
A number of different dilutions of the test compound in water were made up. […] To each dilution was then added 20 μl furylacryloyl-alanyl-lysine (FAAL) at a standard concentration. Substrate turn over was measured by reading the absorbance of the reaction mixture at 330 nm every 15 seconds for 30 minutes. Reaction was performed at 24° C. and samples were mixed for 3 seconds prior to each absorbance reading.
A graph of % inhibition against test compound concentration was then plotted; from which was calculated the IC50 value. The Ki value may then be calculated using the Cheng-Prusoff equation.
For the first control, the assay was performed as above, but with 20 μl of water rather than a dilution of the test compound.

[2] = tested on: thrombi in the left circumflex (LCX) coronary artery; assay: Lysis of coronary artery thrombi by TAFIa inhibitor in conjunction with t-PA; assay type: in vivo, dogs; conditions: for injured vessels patent at the end of the experiment: 8 dogs/group, all groups received t-PA
Excerpt: The study was designed with 4 groups (8 dogs/group): • (i) aspirin pre-treatment/vehicle infusion; • (ii) no pre-treatment/vehicle infusion; • (iii) no pre-treatment/TAFIa inhibitor; and • (iv) aspirin pre-treatment/TAFIa inhibitor.
Thirty minutes after initiating vehicle or compound infusion a continuous electrical current was delivered to the lumen of the left circumflex (LCX) coronary artery to cause endothelial damage and stimulate the production of a thrombus. Thrombi were allowed to mature for 1 hour prior to attempting to lyse the thrombus and cause vessel reperfusion with t-PA. A total of 4 bolus injections of t-PA (each 0.45 mg/kg i.v.) were given sequentially at 15 minute intervals. Blood flow through the coronary artery was then monitored for a further 2 hours so as to assess vessel patency. Time to vessel occlusion, and reperfusion were measured and the quantity and quality of blood flow analysed post-vessel re-perfusion. In addition, the effect of treatment on surgical bleeding, activated clotting time, cutaneous bleeding and platelet aggregation was also assessed.

[3] = TAFIa, FAAL substrate, Ki calculated from IC50 using Cheng-Prusoff equation, read-out: Ki

| Compound | pKi [1, 3] | injured vessels patent at the end of the experiment [2] | other results |
| --- | --- | --- | --- |
| CCCn1cnc(CC(CCCCN)C(=O)O)c1 (racemic) [Example 3, (±)-6-Amino-2-[(1-n-propyl-1H-imidazol-4-yl)methyl]hexanoic acid] | 6.51 |  |  |
| CCCn1cnc(C[C@H](CCCN)C(=O)O)c1 [Example 7, (+)-(2S)-5-Amino-2-[(1-n-propyl-1H-imidazol-4-yl)methyl]pentanoic acid] |  | 8/8 | pKi [1]: 7.89; blood flow post-reperfusion (FIG. 1) ([2]; dogs, t-PA 4 x 0.45 mg/kg i.v. boluses, comparison of treatment groups): far superior to tPA alone; proportion of animals in which flow was >75% of baseline at the end of the protocol ([2]; dogs, with t-PA, versus respective controls): significantly increased; period over which improvement in coronary blood flow was maintained ([2]; dogs, with t-PA, whole of the reperfusion period): 165 min |
| NCCN[C@@H](Cc1c[nH]cn1)C(=O)O [Example 11, (2S)-2-[(2-Aminoethyl)amino]-3-(1H-imidazol-4-yl)propanoic acid] | 6.46 |  |  |
| NCCN[C@@H](Cc1cn(Cc2cncs2)cn1)C(=O)O [Example 45, (2S)-2-[(2-Aminoethyl)amino]-3-[1-(1,3-thiazol-5-ylmethyl)-1H-imidazol-4-yl]propanoic acid] | 6.71 |  |  |
| CC(=O)Oc1ccccc1C(=O)O [aspirin, reference compound] |  | 1/8 |  |
